The test system of the assay is male ddy strain mouse. Put plainly: Pharmacological test of antipruritic action using mice (Compound 48/80-induced scratching). Particulars: for Number of times scratching occurred (mean ± standard error): counted for 30 minutes after Compound 48/80 100 μg/body s.c., oxybuprocaine in saline 10 mg/kg dorsal neck, cyproheptadine 1 mg/kg intraperitoneally, n=6.

SMILES strings stand for the structures.

Consider `CN1CCC(=C2c3ccccc3C=Cc3ccccc32)CC1` [cyproheptadine], for which the “Number of times scratching occurred (mean ± standard error)” value came out at 76.7 ± 21.3.
In the case of `CCCCOc1cc(C(=O)OCCN(CC)CC)ccc1N` [oxybuprocaine, Oxybuprocaine], the “Number of times scratching occurred (mean ± standard error)” value was 45.8 ± 18.9. The “Antipruritic effect in words (suppression of scratching behaviors)” value (compared to saline control group and cyproheptadine group) is recorded as “suppressed scratching behaviors strongly”.

The values are drawn from patent US20110124727A1, “Oxybuprocaine-Containing Analgesic/Antipruritic External Preparation” (Teikoku Seiyaku Co., LTD, priority 2008, published 2011).
